Results reported in publication PMC6857051, “Proliferative regulation of alveolar epithelial type 2 progenitor cells by human Scnn1d gene” (Theranostics, 2019).

What was measured:
δ802αβγ-ENaC = biological target: T1, δ802αβγ-ENaC (Homo sapiens, UniProt P51168+P51170); assay: Two-electrode voltage clamp of δ802αβγ-ENaC expressed in Xenopus oocytes; assay type: cell-based
T1 construct: We characterized full-length human δ802-ENaC expressed in both Xenopus oocytes and humanized transgenic mice; expressed in transfected cells; host or cells: Xenopus laevis oocytes injected with cRNA (pGEM HE vector)
T1 sequence (P51168 1-640): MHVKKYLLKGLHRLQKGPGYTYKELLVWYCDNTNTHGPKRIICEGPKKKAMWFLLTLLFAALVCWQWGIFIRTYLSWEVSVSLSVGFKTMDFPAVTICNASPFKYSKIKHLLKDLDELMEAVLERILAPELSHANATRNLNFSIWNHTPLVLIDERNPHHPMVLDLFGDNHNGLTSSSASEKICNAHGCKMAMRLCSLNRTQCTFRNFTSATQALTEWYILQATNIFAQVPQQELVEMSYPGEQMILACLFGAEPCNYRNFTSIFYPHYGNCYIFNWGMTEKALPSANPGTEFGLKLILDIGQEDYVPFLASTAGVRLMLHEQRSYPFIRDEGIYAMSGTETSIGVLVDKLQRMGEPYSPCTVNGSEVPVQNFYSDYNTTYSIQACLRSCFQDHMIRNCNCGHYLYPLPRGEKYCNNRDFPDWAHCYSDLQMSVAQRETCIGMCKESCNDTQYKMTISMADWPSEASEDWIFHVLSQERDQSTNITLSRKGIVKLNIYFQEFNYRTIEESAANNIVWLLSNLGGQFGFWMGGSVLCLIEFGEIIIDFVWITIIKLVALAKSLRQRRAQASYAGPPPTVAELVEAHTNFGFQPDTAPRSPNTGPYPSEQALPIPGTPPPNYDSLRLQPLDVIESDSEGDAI
T1 sequence (P51170 1-649): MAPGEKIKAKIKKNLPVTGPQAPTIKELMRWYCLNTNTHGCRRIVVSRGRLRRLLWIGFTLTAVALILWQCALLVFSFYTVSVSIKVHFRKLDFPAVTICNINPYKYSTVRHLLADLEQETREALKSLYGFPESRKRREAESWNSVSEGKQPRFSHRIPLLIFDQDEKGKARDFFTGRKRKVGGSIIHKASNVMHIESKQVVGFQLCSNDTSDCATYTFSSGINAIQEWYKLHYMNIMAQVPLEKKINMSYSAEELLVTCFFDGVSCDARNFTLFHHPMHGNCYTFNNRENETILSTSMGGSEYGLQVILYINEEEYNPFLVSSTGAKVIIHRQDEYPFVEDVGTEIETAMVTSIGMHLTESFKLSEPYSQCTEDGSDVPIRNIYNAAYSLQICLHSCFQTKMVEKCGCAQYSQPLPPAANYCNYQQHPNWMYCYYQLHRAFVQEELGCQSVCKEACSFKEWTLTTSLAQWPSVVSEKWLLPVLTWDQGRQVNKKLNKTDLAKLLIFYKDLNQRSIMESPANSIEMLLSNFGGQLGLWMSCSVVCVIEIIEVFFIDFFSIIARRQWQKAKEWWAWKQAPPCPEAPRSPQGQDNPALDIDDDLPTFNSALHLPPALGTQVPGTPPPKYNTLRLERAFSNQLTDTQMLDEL
Procedure: Cloning, in vitro transcription, and heterologous expression of δ802 ENaC and two-electrode voltage clamping assay. δ802 and other ENaC subunits were generated in human ENaC cDNAs cloned into a pGEM HE vector [4], [76]. cRNAs of human α, β, and γ ENaC were prepared as described previously. The stoichiometry of native ENaC complexes is unclear to date. Based on the studies in the last decade, several models have been proposed for αβγ ENaC channels: 1α1β1γ, 2α1β1γ, 3α3β3γ. Based on the EM structure of human αβγ ENaC [35], the currently acceptable model of human αβγ ENaC complexes is heterotrimeric (1α1β1γ). Thus we microinjected δ802:β:γ in a 1:1:1 subunit ratio. Oocytes were surgically removed from appropriately anesthetized adult female Xenopus laevis (Xenopus Express). Briefly, the ovarian tissue was removed from the frog under anesthesia by tricaine-S (Western Chemicals) through a small incision in the lower abdomen. Ovarian lobes were removed and digested in OR-2 calcium-free medium (in mM: 82.5 NaCl, 2.5 KCl, 1.0 MgCl2, 1.0 Na2HPO4, and 10.0 HEPES, pH 7.5) with the addition of 2 mg/ml collagenase (Roche, Indianapolis). Defolliculated oocytes were injected with ENaC cRNAs into the cytosol (25 ng per oocyte in 50 nl of RNase-free water) and incubated in regular OR-2 medium at 18°C. The two-electrode voltage-clamp technique was used to record whole-cell currents 48 h post injection. Oocytes were impaled with two electrodes filled with 3M KCl, having resistance of 0.5 - 2 MΩ. A TEV-200A voltage-clamp amplifier (Dagan) was used to clamp oocytes with concomitant recording of currents. Two reference electrodes were connected to the bath. The continuously perfused bathing solution was ND-96 medium (in mM: 96.0 NaCl, 1.0 MgCl2, 1.8 CaCl2, 2.5 KCl, and 5.0 HEPES, pH 7.5). Whole-cell currents were recorded as previously reported. Experiments were controlled by pCLAMP 10.7 software (Molecular Devices), and currents at -40 mV, -100 mV, and +80 mV were continuously monitored with data recorded at intervals of 10 sec. Data were sampled at the rate of 200 Hz and filtered at 50 Hz.

[1] = biological target: ENaC activity in mouse tracheal epithelial (MTE) monolayers, control; assay: Ussing chamber short-circuit current, control MTE monolayers (uninduced δ802Tg); assay type: cell-based

N=C(N)NC(=O)c1nc(Cl)c(N)nc1N [amiloride]
inhibition of the α-13 peptide-resistant remaining fraction of current amplitude (δ802αβγ-ENaC; amiloride 10 μM after α-13 300 μM, δαβγ-ENaC, -100 mV): approximately 80% | Ki ([1]; Isc, Ussing chamber, amiloride 1 - 1,000 μM, n=5, read-out: ki value (logistic function), control MTE monolayers (converted)): 680 nM

Ac-LRGTLPHPLQRLR-NH2 [α-13 peptide]
fraction of total δαβγ-ENaC activity suppressed (δ802αβγ-ENaC; α-13 300 μM, -100 mV, n=5, Figure 2B): Approximately half | α-13 peptide-inhibitable fraction of Isc, control cells ([1]; α-13 300 μM apical, MTE monolayers, n=6): 96%

B1: plasmin: serine protease of the plasmin(ogen) signal pathway for fibrinolysis (protein, UniProt P00747 20-580; P00747 581-810, looked up)
Plasmin heavy chain A: EPLDDYVNTQGASLFSVTKKQLGAGSIEECAAKCEEDEEFTCRAFQYHSKEQQCVIMAENRKSSIIIRMRDVVLFEKKVYLSECKTGNGKNYRGTMSKTKNGITCQKWSSTSPHRPRFSPATHPSEGLEENYCRNPDNDPQGPWCYTTDPEKRYDYCDILECEEECMHCSGENYDGKISKTMSGLECQAWDSQSPHAHGYIPSKFPNKNLKKNYCRNPDRELRPWCFTTDPNKRWELCDIPRCTTPPPSSGPTYQCLKGTGENYRGNVAVTVSGHTCQHWSAQTPHTHNRTPENFPCKNLDENYCRNPDGKRAPWCHTTNSQVRWEYCKIPSCDSSPVSTEQLAPTAPPELTPVVQDCYHGDGQSYRGTSSTTTTGKKCQSWSSMTPHRHQKTPENYPNAGLTMNYCRNPDADKGPWCFTTDPSVRWEYCNLKKCSGTEASVVAPPPVVLLPDVETPSEEDCMFGNGKGYRGKRATTVTGTPCQDWAAQEPHRHSIFTPETNPRAGLEKNYCRNPDGDVGGPWCYTTNPRKLYDYCDVPQCAAPSFDCGKPQVEPKKCPGR
Plasmin light chain B: VVGGCVAHPHSWPWQVSLRTRFGMHFCGGTLISPEWVLTAAHCLEKSPRPSSYKVILGAHQEVNLEPHVQEIEVSRLFLEPTRKDIALLKLSSPAVITDKVIPACLPSPNYVVADRTECFITGWGETQGTFGAGLLKEAQLPVIENKVCNRYEFLNGRVQSTELCAGHLAGGTDSCQGDSGGPLVCFEKDKYILQGVTSWGLGCARPNKPGVYVRVSRFVTWIEGVMRNN
modifications: Plasmin
notes: serine protease of the plasmin(ogen) signal pathway for fibrinolysis
effect of pre-treatment on δ802αβγ-ENaC activity (δ802αβγ-ENaC; oocytes pre-treated, currents at -100 mV, n=5, Figure 3D): potentiated
